Counter-ions that a name gives are not always drawn. Like-named read-outs stand apart in the source and are kept apart here.
Legend:
[1] = target: T1, 5-HT1D receptor (Homo sapiens, UniProt P28221); test: radioligand competition, CHO-K1 membranes; format: binding; conditions: read-out: 5-HT1D / pKi (converted)
T1 construct: gene HTR1D; full-length human recombinant receptor in CHO-K1 cells (Ogeda); crude membranes
Source text: radioligand competition, CHO-K1 membranes on 5-HT1D receptor

[2] = target: T2, 5-ht1E receptor (Homo sapiens, UniProt P28566); test: cell-based; set-up: species or system CHO-K1; cAMP HTRF agonist assay, Gi coupled receptors, inhibition of stimulated cAMP; conditions: cAMP
T2 construct: gene HTR1E; full-length human recombinant receptor in CHO-K1 cells (Ogeda); crude membranes
Description: (§1) Concentration–response curves were performed in parallel with the agonists. […] After addition of the lysis buffer and 1‐hr incubation, cAMP concentrations were estimated according to the manufacturer specification with the HTRF kit (Cisbio International, Codelet, France). In brief, increasing concentrations of agonists were added to stably transfected cells in buffer in an Optiplate (PerkinElmer Life Sciences, Massachusetts, USA). The plates were incubated, and cells were then lysed by the addition of HTRF reagents (cAMP‐Cryptate and anti‐cAMP‐d2 reagents) and diluted in lysis buffer, followed by incubation at room temperature. […] Additionally, the reference values obtained were compared to historical values obtained from the same receptor and used to validate the experimental session. […] For the new assays developed in this study (i.e., 5‐ht1E receptor), the two independent pIC50 determined must be concordant with a 1 log unit interval for the assays to be validated.

[3] = target: T3, 5-HT1B receptor (Homo sapiens, UniProt P28222); test: cell-based; set-up: species or system CHO-K1; cAMP HTRF agonist assay, Gi coupled receptors, inhibition of stimulated cAMP
T3 construct: gene HTR1B; full-length human recombinant receptor in CHO-K1 cells (Ogeda); crude membranes
Description: as §1

[4] = target: T4, 5-HT1F receptor (Homo sapiens, UniProt P30939); test: cAMP HTRF, stably transfected CHO-K1 cells; format: cell-based
T4 construct: gene HTR1F; full-length human recombinant receptor in CHO-K1 cells (Ogeda)
T4 sequence (P30939 1-366): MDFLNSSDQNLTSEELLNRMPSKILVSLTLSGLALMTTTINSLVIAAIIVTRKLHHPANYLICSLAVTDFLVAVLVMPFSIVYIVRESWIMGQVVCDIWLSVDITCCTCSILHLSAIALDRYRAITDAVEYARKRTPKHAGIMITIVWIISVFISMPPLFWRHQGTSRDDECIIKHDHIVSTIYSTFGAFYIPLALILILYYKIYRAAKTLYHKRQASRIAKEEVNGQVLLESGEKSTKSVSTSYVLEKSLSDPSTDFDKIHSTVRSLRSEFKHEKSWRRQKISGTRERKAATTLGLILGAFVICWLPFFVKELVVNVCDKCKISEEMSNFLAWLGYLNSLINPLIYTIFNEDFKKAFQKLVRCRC

[5] = target: T2, 5-ht1E receptor; test: biochemical; format: CHO-K1 membranes; set-up: radioligand competition binding on cell membranes, filtration and TopCount scintillation counting; conditions: radioligand displacement; read-out: 5‐ht1E / pIC50 (converted)
Description: (§2) Competition binding was performed in duplicate in the wells of a 96‐well plate containing binding buffer (optimized for each receptor), cell membrane extracts (approximately 20,000 cells distributed in the 96‐well plate), radiotracer, and test agonist. Non‐specific binding was determined by co‐incubation with 200‐fold excess of competitor. Cells were incubated and exposed to varying concentrations (1 pM to 10 μM) of a range of displacer agonists (see below). The samples were incubated in a final volume of 0.1 ml and then filtered over Unifilter plates (Perkin Elmer, Massachusetts, USA) pretreated for 2 hr to limit tracer non‐specific binding. Filters were washed five times with 0.5 ml of ice‐cold washing buffer (tris 50 mM pH 7.4) and 50 μl of Microscint 20 (Perkin Elmer) were added to each filter. The plates were incubated 15 min at room temperature on an orbital shaker and then counted with a TopCount™ (Perkin Elmer) for 1 min per well. […] Additionally, the reference values obtained were compared to historical values obtained from the same receptor and used to validate the experimental session. […] For the new assays developed in this study (i.e., 5‐ht1E receptor), the two independent pIC50 determined must be concordant with a 1 log unit interval for the assays to be validated.

[6] = target: T3, 5-HT1B receptor; test: biochemical; format: CHO-K1 membranes; set-up: radioligand competition binding on cell membranes, filtration and TopCount scintillation counting; conditions: radioligand displacement; read-out: 5‐HT1B / pIC50 (converted)
Description: as §2

[7] = target: T1, 5-HT1D receptor; test: biochemical; format: CHO-K1 membranes; set-up: radioligand competition binding on cell membranes, filtration and TopCount scintillation counting; conditions: radioligand displacement; read-out: 5‐HT1D / pIC50 (converted)
Description: as §2

[8] = target: T5, 5-HT2B receptor (Homo sapiens, UniProt P41595); test: biochemical; format: CHO-K1 membranes; set-up: radioligand competition binding on cell membranes, filtration and TopCount scintillation counting; conditions: radioligand displacement; read-out: 5‐HT2B / pIC50 (converted)
T5 construct: gene HTR2B; full-length human recombinant receptor in CHO-K1 cells (Ogeda); crude membranes
Description: as §2

[9] = target: T4, 5-HT1F receptor; test: radioligand competition, CHO-K1 membranes; format: binding; conditions: read-out: 5-HT1F / pKi (converted)
[10] = target: T6, 5-HT1A receptor (Homo sapiens, UniProt P08908); test: radioligand competition, CHO-K1 membranes; format: binding; conditions: read-out: 5-HT1A / pKi (converted)
T6 construct: gene HTR1A; full-length human recombinant receptor in CHO-K1 cells (Ogeda); crude membranes
T6 sequence (P08908 1-422): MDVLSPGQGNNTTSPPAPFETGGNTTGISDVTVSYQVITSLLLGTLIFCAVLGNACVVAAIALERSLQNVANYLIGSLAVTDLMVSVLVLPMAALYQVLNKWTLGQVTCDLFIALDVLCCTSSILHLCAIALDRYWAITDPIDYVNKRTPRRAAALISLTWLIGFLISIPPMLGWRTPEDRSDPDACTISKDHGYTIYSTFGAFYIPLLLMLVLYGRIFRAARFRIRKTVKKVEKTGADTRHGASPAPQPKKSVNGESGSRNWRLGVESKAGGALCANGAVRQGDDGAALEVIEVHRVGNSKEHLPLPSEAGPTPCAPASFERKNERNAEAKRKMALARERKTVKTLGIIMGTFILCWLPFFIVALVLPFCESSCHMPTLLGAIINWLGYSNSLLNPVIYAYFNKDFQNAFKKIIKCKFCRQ
Source text: radioligand competition, CHO-K1 membranes on 5-HT1A receptor

[11] = cAMP, read-out: 5‐HT1B / cAMP (converted)
[12] = read-out: 5-HT1F / cAMP (converted)

T3 sequence (P28222 whole entry): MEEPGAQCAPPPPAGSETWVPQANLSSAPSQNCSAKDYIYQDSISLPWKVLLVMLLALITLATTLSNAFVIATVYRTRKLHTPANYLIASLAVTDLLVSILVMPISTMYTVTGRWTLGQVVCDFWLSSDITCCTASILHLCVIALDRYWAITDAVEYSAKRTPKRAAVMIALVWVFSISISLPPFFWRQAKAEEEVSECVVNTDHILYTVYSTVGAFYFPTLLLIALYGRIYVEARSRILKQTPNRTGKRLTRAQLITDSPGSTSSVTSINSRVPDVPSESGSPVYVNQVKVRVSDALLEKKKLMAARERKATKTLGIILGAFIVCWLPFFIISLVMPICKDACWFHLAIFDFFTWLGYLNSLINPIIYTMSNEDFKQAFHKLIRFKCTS
T2 sequence (P28566 whole entry): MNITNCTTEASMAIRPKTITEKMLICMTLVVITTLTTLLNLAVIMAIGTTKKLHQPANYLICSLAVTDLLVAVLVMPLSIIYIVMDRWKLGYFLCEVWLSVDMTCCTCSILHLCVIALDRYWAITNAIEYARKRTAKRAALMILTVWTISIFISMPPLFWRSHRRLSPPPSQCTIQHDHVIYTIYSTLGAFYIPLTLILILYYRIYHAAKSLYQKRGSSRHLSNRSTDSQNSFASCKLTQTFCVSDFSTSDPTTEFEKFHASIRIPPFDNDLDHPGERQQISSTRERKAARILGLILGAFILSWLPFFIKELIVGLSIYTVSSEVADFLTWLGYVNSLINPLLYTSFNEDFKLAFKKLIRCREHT
T1 sequence (P28221 whole entry): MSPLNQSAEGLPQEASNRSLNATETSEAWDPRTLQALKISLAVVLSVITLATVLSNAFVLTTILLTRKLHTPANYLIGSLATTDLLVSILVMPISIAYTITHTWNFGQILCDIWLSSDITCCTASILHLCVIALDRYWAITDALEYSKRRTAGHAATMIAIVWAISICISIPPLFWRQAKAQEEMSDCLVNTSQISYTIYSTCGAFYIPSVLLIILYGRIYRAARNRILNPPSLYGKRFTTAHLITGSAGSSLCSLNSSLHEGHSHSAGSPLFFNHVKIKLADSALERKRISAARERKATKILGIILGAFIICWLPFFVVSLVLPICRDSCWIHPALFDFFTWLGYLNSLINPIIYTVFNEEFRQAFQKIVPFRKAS
T5 sequence (P41595 whole entry): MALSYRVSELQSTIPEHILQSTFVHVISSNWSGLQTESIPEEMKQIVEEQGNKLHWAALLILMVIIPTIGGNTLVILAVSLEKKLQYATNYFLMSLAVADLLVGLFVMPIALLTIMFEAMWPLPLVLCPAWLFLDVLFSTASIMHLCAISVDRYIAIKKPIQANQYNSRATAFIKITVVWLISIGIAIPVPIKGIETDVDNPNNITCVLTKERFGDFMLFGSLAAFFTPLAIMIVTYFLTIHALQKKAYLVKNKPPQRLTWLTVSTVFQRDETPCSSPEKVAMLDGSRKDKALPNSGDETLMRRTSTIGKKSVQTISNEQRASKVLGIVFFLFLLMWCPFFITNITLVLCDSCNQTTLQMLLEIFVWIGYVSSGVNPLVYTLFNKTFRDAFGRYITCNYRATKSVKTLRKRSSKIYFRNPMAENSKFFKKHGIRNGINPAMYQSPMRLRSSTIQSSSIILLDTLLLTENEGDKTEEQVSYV

| SMILES | Ki [1] | EC50 [2] | EC50 [3, 11] | EC50 [4, 12] | IC50 [5] | IC50 [6] | IC50 [7] | IC50 [8] | Ki [9] | Ki [10] | EC50 [3] | EC50 ([4]; read-out: 5-HT1A / cAMP) |
| --- | --- | --- | --- | --- | --- | --- | --- | --- | --- | --- | --- | --- |
| CN1CCC[C@@H]1Cc1c[nH]c2ccc(CCS(=O)(=O)c3ccccc3)cc12 [Eletriptan hydrobromide] | 0.102 nM | 29.5 nM | 10 nM | 7.41 nM | 123 nM | 1.58 nM | 0.49 nM | 724 nM | 17 nM | 1.95 nM |  |  |
| N#Cc1ccc(N2CCN(C(=O)COc3ccc4[nH]cc(CCN)c4c3)CC2)cc1 [Donitriptan hydrochloride] | 0.138 nM | > 10000 nM |  |  | 3390 nM | 0.513 nM | 0.661 nM | 1320 nM |  | 11.7 nM | 0.11 nM | > 10000 nM |
| CNS(=O)(=O)CCc1ccc2[nH]cc(C3CCN(C)CC3)c2c1 [Naratriptan hydrochloride] | 0.501 nM | 17.8 nM | 8.91 nM | 4.17 nM |  |  | 2.4 nM | > 10000 nM | 1.78 nM | 15.1 nM |  |  |
| CN(C)[C@@H]1CCc2[nH]c3ccc(NC(=O)c4ccc(F)cc4)cc3c2C1 [LY344864 hydrochloride] |  |  |  |  |  |  |  | 4900 nM |  |  |  |  |
| CNS(=O)(=O)Cc1ccc2[nH]cc(CCCN3CCN(c4ncncc4OC)CC3)c2c1 [Avitriptan fumarate] | 0.776 nM | 3020 nM | 2.69 nM | 81.3 nM | 7080 nM | 4.79 nM | 3.8 nM | 1860 nM | 77.6 nM | 19.5 nM |  |  |
| CNC1CCc2[nH]c3ccc(C(N)=O)cc3c2C1 (racemic) [Frovatriptan racemate] |  | 9120 nM |  |  | > 10000 nM |  |  |  |  |  |  |  |

— PMC6965684, “Characterization of binding, functional activity, and contractile responses of the selective 5‐HT1F receptor agonist lasmiditan” (British Journal of Pharmacology, 2019)
